According to ChEMBL document CHEMBL4507307 (2021):

What was measured:
[1] = target: Kappa-type opioid receptor (Homo sapiens, UniProt P41145); assay: GPCRScan assay: inhibition of KOR; parameters: radioligand conc. used [nm] 0.6 – 1.2, parental cells stable HEK
[2] = target: Alpha-2B adrenergic receptor (Homo sapiens, UniProt P18089); assay: GPCRScan assay: inhibition of Alpha2B; parameters: radioligand conc. used [nm] 1.5 – 2.0, parental cells HEKT
D(2) dopamine receptor = D(2) dopamine receptor (Homo sapiens, UniProt P14416); assay: GPCRScan assay: inhibition of D2; parameters: radioligand conc. used [nm] 0.4 – 1.0, parental cells stable fibroblast
Histamine H2 receptor = Histamine H2 receptor (Homo sapiens, UniProt P25021); assay: GPCRScan assay: inhibition of H2; parameters: radioligand conc. used [nm] 0.02 – 0.05, parental cells Stable HEK
[3] = target: 5-hydroxytryptamine receptor 1B (Homo sapiens, UniProt P28222); assay: GPCRScan assay: inhibition of 5-HT1B; parameters: radioligand conc. used [nm] 0.6 – 1.5, parental cells stable HEK
[4] = target: Alpha-1D adrenergic receptor (Homo sapiens, UniProt P25100); assay: GPCRScan assay: inhibition of Alpha1D; parameters: radioligand conc. used [nm] 0.3 – 1.0, parental cells stable
[5] = target: 5-hydroxytryptamine receptor 1A (Homo sapiens) (UniProt P08908); settings: Compound concentration 10.0 uM
[6] = target: Muscarinic acetylcholine receptor M1 (Homo sapiens, UniProt P11229); assay: GPCRScan assay: inhibition of M1; parameters: radioligand conc. used [nm] 0.3 – 1.2, parental cells stable CHO
Rattus norvegicus = species on record: Rattus norvegicus; settings: Compound concentration 10.0 uM
[7] = target: Alpha-1B adrenergic receptor (Homo sapiens, UniProt P35368); assay: GPCRScan assay: inhibition of Alpha1B; parameters: radioligand conc. used [nm] 0.3 – 1.0, parental cells stable HEK
D(3) dopamine receptor = D(3) dopamine receptor (Homo sapiens, UniProt P35462); assay: GPCRScan assay: inhibition of D3; parameters: radioligand conc. used [nm] 0.5 – 1.8, parental cells HEKT
[8] = target: Beta-3 adrenergic receptor (Homo sapiens, UniProt P13945); assay: GPCRScan assay: inhibition of Beta3; parameters: radioligand conc. used [nm] 0.2 – 0.5, parental cells HEK Flp-In
[9] = target: 5-hydroxytryptamine receptor 1E (Homo sapiens, UniProt P28566); assay: GPCRScan assay: inhibition of 5-HT1E; parameters: radioligand conc. used [nm] 2.1 – 5.0, parental cells stable HEK
[10] = target: 5-hydroxytryptamine receptor 1A (Homo sapiens, UniProt P08908); assay: GPCRScan assay: inhibition of 5-HT1A; parameters: radioligand conc. used [nm] 0.5 – 1.0, parental cells stable CHO
[11] = target: 5-hydroxytryptamine receptor 6 (Homo sapiens) (UniProt P50406); settings: Compound concentration 10.0 uM
[12] = target: Dual specificity tyrosine-phosphorylation-regulated kinase 4 (Homo sapiens) (UniProt Q9NR20); assay: DYRK4 Kinase activity screen
[13] = target: Proto-oncogene tyrosine-protein kinase ROS (Homo sapiens) (UniProt P08922); assay: ROS1 Kinase activity screen
[14] = target: Casein kinase I isoform delta (Homo sapiens) (UniProt P48730); assay: CSNK1D (CK1 delta) Kinase activity screen
[15] = target: Ephrin type-A receptor 2 (Homo sapiens) (UniProt P29317); assay: EPHA2 Kinase activity screen
[16] = target: Cyclin-dependent kinase 5/CDK5 activator 1 (Homo sapiens) (UniProt Q00535+Q15078); assay: CDK5/p25 Kinase activity screen; format: protein-complex assay
[17] = target: Dual specificity mitogen-activated protein kinase kinase 2 (Homo sapiens) (UniProt P36507); assay: MAP2K2 (MEK2) Kinase activity screen
[18] = target: Dual specificity protein kinase CLK2 (Homo sapiens, UniProt P49760); assay: CLK2 Kinase activity screen
[19] = target: Serine/threonine-protein kinase Nek1 (Homo sapiens) (UniProt Q96PY6); assay: NEK1 Kinase activity screen
[20] = target: Serine/threonine-protein kinase PLK1 (Homo sapiens) (UniProt P53350); assay: PLK1 Kinase activity screen
[21] = target: Homeodomain-interacting protein kinase 1 (Homo sapiens) (UniProt Q86Z02); assay: HIPK1 (Myak) Kinase activity screen
[22] = target: Serine/threonine-protein kinase B-raf (Homo sapiens) (UniProt P15056); assay: BRAF Kinase activity screen
[23] = target: Dual specificity protein kinase CLK3 (Homo sapiens) (UniProt P49761); assay: CLK3 Kinase activity screen
[24] = target: Mitogen-activated protein kinase 8 (Homo sapiens) (UniProt P45983); assay: MAPK8 (JNK1) Kinase activity screen
[25] = target: Dual specificity protein kinase CLK1 (Homo sapiens, UniProt P49759); assay: CLK1 Kinase activity screen
[26] = target: Hepatocyte growth factor receptor (Homo sapiens) (UniProt P08581); assay: MET (cMet) Kinase activity screen; settings: Compound concentration 1.0 uM
[27] = target: Calcium/calmodulin-dependent protein kinase type 1 (Homo sapiens) (UniProt Q14012); assay: CAMK1 (CaMK1) Kinase activity screen
[28] = target: CDK7/Cyclin H/MNAT1 (Homo sapiens) (UniProt P51946+P50613+P51948); assay: CDK7/cyclin H/MNAT1 Kinase activity screen; format: protein-complex assay
[29] = target: Mitogen-activated protein kinase 9 (Homo sapiens) (UniProt P45984); assay: MAPK9 (JNK2) Kinase activity screen
[30] = target: Proto-oncogene tyrosine-protein kinase receptor Ret (Homo sapiens) (UniProt P07949); assay: RET Kinase activity screen
[31] = target: Dual specificity tyrosine-phosphorylation-regulated kinase 1B (Homo sapiens, UniProt Q9Y463); assay: DYRK1B Kinase activity screen
[32] = target: Angiopoietin-1 receptor (Homo sapiens) (UniProt Q02763); assay: TEK (Tie2) Kinase activity screen
[33] = target: Inhibitor of nuclear factor kappa-B kinase subunit beta (Homo sapiens) (UniProt O14920); assay: IKBKB (IKK beta) Kinase activity screen
[34] = target: Death-associated protein kinase 1 (Homo sapiens) (UniProt P53355); assay: DAPK1 Kinase activity screen
[35] = target: Dual specificity tyrosine-phosphorylation-regulated kinase 3 (Homo sapiens) (UniProt O43781); assay: DYRK3 Kinase activity screen
[36] = target: Rho-associated protein kinase 1 (Homo sapiens) (UniProt Q13464); assay: ROCK1 Kinase activity screen
[37] = target: cAMP-dependent protein kinase catalytic subunit alpha (Homo sapiens) (UniProt P17612); assay: PRKACA (PKA) Kinase activity screen
[38] = Compound concentration 0.123 uM

Dual specificity protein kinase CLK2, sequence (P49760 whole entry, looked up): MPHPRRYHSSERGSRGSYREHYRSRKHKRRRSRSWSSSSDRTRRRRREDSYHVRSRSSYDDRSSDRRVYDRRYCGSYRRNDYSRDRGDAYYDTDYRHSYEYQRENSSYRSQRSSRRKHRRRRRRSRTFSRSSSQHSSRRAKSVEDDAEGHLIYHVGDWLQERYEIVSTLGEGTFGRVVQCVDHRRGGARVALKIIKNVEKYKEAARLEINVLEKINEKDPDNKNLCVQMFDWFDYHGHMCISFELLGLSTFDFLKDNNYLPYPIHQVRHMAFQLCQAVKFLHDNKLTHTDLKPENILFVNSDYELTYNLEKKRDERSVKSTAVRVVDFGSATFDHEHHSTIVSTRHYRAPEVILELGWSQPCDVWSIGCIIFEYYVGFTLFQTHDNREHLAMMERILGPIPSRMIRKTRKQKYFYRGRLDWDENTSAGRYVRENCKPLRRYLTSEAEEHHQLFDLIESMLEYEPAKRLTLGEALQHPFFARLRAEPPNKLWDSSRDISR
Dual specificity tyrosine-phosphorylation-regulated kinase 1B, sequence (Q9Y463 whole entry, looked up): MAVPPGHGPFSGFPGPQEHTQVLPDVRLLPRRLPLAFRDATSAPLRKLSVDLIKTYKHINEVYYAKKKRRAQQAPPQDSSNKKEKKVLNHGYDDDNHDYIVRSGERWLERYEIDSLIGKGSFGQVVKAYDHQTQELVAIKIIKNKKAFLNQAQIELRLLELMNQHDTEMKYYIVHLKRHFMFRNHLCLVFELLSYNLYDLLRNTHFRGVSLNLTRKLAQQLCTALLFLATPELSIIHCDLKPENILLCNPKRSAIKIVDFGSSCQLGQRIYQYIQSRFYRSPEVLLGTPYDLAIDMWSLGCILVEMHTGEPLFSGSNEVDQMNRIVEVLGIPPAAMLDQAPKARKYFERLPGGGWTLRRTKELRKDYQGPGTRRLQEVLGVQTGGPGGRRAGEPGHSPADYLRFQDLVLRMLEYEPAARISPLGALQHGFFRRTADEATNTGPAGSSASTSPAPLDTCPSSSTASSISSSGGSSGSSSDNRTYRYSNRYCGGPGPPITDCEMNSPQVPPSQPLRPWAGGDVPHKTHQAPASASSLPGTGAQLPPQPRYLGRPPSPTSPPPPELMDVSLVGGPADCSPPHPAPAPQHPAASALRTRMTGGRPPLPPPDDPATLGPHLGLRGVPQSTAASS
Dual specificity protein kinase CLK1, sequence (P49759 whole entry, looked up): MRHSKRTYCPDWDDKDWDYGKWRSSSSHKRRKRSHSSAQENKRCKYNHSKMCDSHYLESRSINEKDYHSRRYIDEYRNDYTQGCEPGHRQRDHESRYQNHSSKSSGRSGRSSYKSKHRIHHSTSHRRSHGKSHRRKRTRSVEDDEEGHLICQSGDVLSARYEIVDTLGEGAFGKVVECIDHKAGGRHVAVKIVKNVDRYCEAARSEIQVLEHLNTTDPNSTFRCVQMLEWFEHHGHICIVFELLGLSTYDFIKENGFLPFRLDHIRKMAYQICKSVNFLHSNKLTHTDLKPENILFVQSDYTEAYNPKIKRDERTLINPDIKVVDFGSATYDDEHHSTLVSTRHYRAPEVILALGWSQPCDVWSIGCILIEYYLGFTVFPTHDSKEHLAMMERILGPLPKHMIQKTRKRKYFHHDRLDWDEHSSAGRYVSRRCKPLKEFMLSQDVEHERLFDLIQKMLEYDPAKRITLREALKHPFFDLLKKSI
Homeodomain-interacting protein kinase 1 (Homo sapiens), sequence (Q86Z02 whole entry, looked up): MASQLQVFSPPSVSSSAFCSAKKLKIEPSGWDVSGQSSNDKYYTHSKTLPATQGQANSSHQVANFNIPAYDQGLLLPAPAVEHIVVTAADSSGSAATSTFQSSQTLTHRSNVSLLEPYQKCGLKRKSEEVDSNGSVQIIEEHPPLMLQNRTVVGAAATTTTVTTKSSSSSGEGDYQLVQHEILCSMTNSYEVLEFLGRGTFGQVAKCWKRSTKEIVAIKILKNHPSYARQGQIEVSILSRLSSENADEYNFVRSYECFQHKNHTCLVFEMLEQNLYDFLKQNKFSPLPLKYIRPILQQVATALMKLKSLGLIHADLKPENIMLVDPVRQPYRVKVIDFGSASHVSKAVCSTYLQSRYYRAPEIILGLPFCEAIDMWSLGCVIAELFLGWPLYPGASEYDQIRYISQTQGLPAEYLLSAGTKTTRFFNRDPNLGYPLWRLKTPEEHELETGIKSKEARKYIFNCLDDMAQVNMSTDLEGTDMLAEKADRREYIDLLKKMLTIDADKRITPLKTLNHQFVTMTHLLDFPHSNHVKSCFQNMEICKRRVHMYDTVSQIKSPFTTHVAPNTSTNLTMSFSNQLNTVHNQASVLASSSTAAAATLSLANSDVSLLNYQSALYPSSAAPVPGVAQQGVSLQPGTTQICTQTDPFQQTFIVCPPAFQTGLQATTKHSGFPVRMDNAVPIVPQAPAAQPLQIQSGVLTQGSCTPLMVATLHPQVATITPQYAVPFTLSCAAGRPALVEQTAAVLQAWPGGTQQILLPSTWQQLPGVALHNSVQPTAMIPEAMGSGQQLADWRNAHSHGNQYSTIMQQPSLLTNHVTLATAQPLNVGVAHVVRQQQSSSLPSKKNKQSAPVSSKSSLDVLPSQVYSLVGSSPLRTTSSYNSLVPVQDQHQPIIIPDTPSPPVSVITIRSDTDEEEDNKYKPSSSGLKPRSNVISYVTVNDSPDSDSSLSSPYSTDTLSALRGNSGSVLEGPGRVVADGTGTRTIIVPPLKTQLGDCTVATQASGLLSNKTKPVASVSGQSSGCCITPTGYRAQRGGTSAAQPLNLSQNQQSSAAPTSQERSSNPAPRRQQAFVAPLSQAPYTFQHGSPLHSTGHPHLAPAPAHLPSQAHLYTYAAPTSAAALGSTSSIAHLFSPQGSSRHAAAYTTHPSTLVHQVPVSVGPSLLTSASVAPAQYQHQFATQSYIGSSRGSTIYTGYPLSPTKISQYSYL
Mitogen-activated protein kinase 9 (Homo sapiens), sequence (P45984 whole entry, looked up): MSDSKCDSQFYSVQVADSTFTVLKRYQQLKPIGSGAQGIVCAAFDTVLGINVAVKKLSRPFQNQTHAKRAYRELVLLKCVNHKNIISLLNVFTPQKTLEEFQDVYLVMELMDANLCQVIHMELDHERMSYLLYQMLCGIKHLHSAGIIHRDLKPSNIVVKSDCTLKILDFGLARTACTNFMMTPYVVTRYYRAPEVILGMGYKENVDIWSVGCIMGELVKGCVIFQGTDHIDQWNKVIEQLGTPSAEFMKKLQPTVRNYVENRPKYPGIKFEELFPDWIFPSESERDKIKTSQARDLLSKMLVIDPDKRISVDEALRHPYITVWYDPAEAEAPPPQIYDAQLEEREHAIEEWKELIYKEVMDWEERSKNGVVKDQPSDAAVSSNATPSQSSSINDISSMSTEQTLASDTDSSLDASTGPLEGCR
Alpha-2B adrenergic receptor, sequence (P18089 whole entry): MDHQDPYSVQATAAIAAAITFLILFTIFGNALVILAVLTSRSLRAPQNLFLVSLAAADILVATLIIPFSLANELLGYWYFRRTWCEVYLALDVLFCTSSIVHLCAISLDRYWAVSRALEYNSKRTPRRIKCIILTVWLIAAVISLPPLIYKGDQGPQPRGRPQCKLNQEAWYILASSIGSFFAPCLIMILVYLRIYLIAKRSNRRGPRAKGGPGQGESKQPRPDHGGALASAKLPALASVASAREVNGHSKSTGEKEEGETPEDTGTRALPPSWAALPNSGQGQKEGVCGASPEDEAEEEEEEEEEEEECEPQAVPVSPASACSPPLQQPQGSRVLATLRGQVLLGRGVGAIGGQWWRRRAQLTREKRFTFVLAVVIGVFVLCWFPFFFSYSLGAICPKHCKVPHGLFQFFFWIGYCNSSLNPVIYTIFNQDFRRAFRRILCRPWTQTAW
Dual specificity tyrosine-phosphorylation-regulated kinase 3 (Homo sapiens), sequence (O43781 whole entry): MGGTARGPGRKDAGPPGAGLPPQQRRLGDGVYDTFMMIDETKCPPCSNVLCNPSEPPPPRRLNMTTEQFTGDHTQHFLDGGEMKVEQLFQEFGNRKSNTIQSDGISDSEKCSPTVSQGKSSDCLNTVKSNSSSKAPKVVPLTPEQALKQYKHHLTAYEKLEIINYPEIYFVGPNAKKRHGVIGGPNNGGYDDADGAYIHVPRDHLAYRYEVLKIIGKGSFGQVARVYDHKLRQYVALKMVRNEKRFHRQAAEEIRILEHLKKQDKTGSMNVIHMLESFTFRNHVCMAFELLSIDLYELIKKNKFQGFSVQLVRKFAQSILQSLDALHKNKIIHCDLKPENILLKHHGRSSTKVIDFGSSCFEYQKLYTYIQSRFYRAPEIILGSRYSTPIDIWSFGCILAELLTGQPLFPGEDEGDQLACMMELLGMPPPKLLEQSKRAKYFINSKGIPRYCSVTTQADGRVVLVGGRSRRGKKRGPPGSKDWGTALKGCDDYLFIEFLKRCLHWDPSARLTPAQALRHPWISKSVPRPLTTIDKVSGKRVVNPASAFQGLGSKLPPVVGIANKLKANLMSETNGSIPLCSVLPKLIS
D(3) dopamine receptor, sequence (P35462 whole entry): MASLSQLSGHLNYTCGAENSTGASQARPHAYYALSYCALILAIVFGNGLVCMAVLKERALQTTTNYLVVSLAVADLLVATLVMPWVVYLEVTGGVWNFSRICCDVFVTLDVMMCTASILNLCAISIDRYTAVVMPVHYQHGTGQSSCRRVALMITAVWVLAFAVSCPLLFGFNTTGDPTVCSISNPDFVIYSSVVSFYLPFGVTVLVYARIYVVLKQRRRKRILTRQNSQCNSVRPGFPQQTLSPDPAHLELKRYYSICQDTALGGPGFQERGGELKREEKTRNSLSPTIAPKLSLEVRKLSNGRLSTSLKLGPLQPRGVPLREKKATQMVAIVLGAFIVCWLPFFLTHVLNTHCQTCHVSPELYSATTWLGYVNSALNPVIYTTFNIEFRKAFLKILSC

Structure (SMILES): CN1CCN(C(=O)C(C)(C)c2ccc(C(=O)Nc3cn4cc(-c5cc(C(C)(C)C)cc(C(C)(C)C)c5)ccc4n3)cc2)CC1 [T3-CLK-N]
- Ki ([1]; read-out: Ki): 990 nM
- Ki ([1]; read-out: pKi (converted)): 977 nM
- Ki ([2]; read-out: Ki): 1650 nM
- Ki ([2]; read-out: pKi (converted)): 1620 nM
- Ki (D(2) dopamine receptor; read-out: Ki): 2750 nM
- Ki (D(2) dopamine receptor; read-out: pKi (converted)): 2340 nM
- Ki (Histamine H2 receptor; read-out: Ki): 1730 nM
- Ki (Histamine H2 receptor; read-out: pKi (converted)): 1620 nM
- Ki [3]: 2170 nM
- Ki [4]: 1450 nM
- inhibition [5]: 51.3%
- Ki ([6]; read-out: Ki): 2090 nM
- Ki ([6]; read-out: pKi (converted)): 1950 nM
- inhibition (Rattus norvegicus): -6.1%
- Ki ([7]; read-out: Ki): 5530 nM
- Ki ([7]; read-out: pKi (converted)): 5370 nM
- Ki (D(3) dopamine receptor; read-out: Ki): 2250 nM
- Ki (D(3) dopamine receptor; read-out: pKi (converted)): 1910 nM
- Ki [8]: > 10000 nM
- pKi [8]: < 5
- Ki ([9]; read-out: Ki): 3560 nM
- Ki ([9]; read-out: pKi (converted)): 3470 nM
- Ki [10]: 2560 nM
- inhibition [11]: 30.8%

Structure (SMILES): CN1CCN(C(=O)C(C)(C)c2ccc(C(=O)Nc3cn4cc(-c5ccncc5)ccc4n3)cc2)CC1 [T3-CLK]
- inhibition [12, 38]: -8.38%
- inhibition ([12]; Compound concentration 1.11 uM): -2.87%
- inhibition ([13]; Compound concentration 0.1 uM): -3.68%
- inhibition ([13]; Compound concentration 1.0 uM): -0.398%
- inhibition ([14]; Compound concentration 0.1 uM): -2.92%
- inhibition ([14]; Compound concentration 1.0 uM): 4.31%
- inhibition ([15]; Compound concentration 0.1 uM): -4.09%
- inhibition ([15]; Compound concentration 1.0 uM): -6.26%
- inhibition ([16]; Compound concentration 0.1 uM): 1.84%
- inhibition ([16]; Compound concentration 1.0 uM): 0.79%
- inhibition ([17]; Compound concentration 0.1 uM): 16.9%
- inhibition ([17]; Compound concentration 1.0 uM): 13.8%
- inhibition [18, 38]: 92.1%
- inhibition ([18]; Compound concentration 1.11 uM): 100%
- inhibition ([19]; Compound concentration 0.1 uM): 3.86%
- inhibition ([19]; Compound concentration 1.0 uM): 25.1%
- inhibition ([20]; Compound concentration 0.1 uM): 7.85%
- inhibition ([20]; Compound concentration 1.0 uM): 2.48%
- inhibition ([21]; Compound concentration 0.1 uM): -0.71%
- inhibition ([21]; Compound concentration 1.0 uM): 2.69%
- inhibition ([22]; Compound concentration 0.1 uM): 8.71%
- inhibition ([22]; Compound concentration 1.0 uM): 17.2%
- inhibition [23, 38]: 38.3%
- inhibition ([23]; Compound concentration 1.11 uM): 88.7%
- inhibition ([24]; Compound concentration 0.1 uM): 5.45%
- inhibition ([24]; Compound concentration 1.0 uM): 2.56%
- inhibition [25, 38]: 91.2%
- inhibition ([25]; Compound concentration 1.11 uM): 99.1%
- inhibition [26]: -7.39%
- inhibition ([27]; Compound concentration 0.1 uM): 7.14%
- inhibition ([27]; Compound concentration 1.0 uM): 5.32%
- inhibition ([28]; Compound concentration 0.1 uM): 0.551%
- inhibition ([28]; Compound concentration 1.0 uM): -3.41%
- inhibition ([29]; Compound concentration 0.1 uM): 3.18%
- inhibition ([29]; Compound concentration 1.0 uM): -1.48%
- inhibition ([30]; Compound concentration 0.1 uM): -1.05%
- inhibition ([30]; Compound concentration 1.0 uM): -2.43%
- inhibition [31, 38]: 62.7%
- inhibition ([31]; Compound concentration 1.11 uM): 94.1%
- inhibition ([32]; Compound concentration 0.1 uM): 0.108%
- inhibition ([32]; Compound concentration 1.0 uM): -0.329%
- inhibition ([33]; Compound concentration 0.1 uM): -6.12%
- inhibition ([33]; Compound concentration 1.0 uM): -4.71%
- inhibition ([34]; Compound concentration 0.1 uM): -4.42%
- inhibition ([34]; Compound concentration 1.0 uM): -6.43%
- inhibition [35, 38]: -1.82%
- inhibition ([35]; Compound concentration 1.11 uM): 3.7%
- inhibition ([36]; Compound concentration 0.1 uM): 5.17%
- inhibition ([36]; Compound concentration 1.0 uM): 9.37%
- inhibition ([37]; Compound concentration 0.1 uM): -1.57%
- inhibition ([37]; Compound concentration 1.0 uM): 3.62%
